Results taken from the supplement of paper PMC11061612.

Experiments:
Assay in all cases: combination Emax (second highest fraction inhibited in the dose matrix, 72 h); higher = more inhibition; extreme values may be limits of the assay
[1] = system: COLO-205 (Colorectal Carcinoma)
Procedure, shortened: (§1)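 After 24 hours at 37°C and 5% CO2 in 1536-well plates, cells in DMEM/F12 or RPMI plus 10% FBS received two-drug dose matrices for 72 hours. Viability came from CellTiter-Glo 2.0 luminescence and was scaled as inhibition, anchored at 0 by vehicle wells and at 1 by blank wells. Combination Emax is taken as the second-highest inhibition in the matrix, and Bliss excess as the observed combination effect less EA + EB − EA·EB, with EA and EB the single-agent effects.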

[2] = system: CaR-1 (Colorectal Carcinoma)
Procedure, shortened: as §1

[3] = system: EC-GI-10 (Esophageal Squamous Cell Carcinoma)
Procedure, shortened: as §1

[4] = system: KELLY (Neuroblastoma)
Procedure, shortened: as §1

[5] = system: KYSE-520 (Esophageal Squamous Cell Carcinoma)
Procedure, shortened: as §1

[6] = system: LB831-BLC (Bladder Carcinoma)
Procedure, shortened: as §1

[7] = system: LU-135 (Small Cell Lung Carcinoma)
Procedure, shortened: as §1

[8] = system: MFE-296 (Endometrial Carcinoma)
Procedure, shortened: as §1

[9] = system: NB10 (Neuroblastoma)
Procedure, shortened: as §1

[10] = system: NCI-H82 (Small Cell Lung Carcinoma)
Procedure, shortened: as §1

[11] = system: NOS-1 (Osteosarcoma)
Procedure, shortened: as §1

[12] = system: OVCA420 (Ovarian Carcinoma)
Procedure, shortened: as §1

Row | SMILES | combination Emax [1] | combination Emax [2] | combination Emax [3] | combination Emax [4] | combination Emax [5] | combination Emax [6] | combination Emax [7] | combination Emax [8] | combination Emax [9] | combination Emax [10] | combination Emax [11] | combination Emax [12]
1 | Cc1c2c(nn1C)CSCc1cc(n(C)n1)CSc1cc(c3ccccc3c1)OCCCc1c(C(=O)O)n(C)c3c-2c(Cl)ccc13 [AZD5991] + Cn1cnc2c(F)c(Nc3ccc(Br)cc3Cl)c(C(=O)NOCCO)cc21 [Selumetinib] (first compound max 1 µM, 7x7, partner max 3 µM) | 0.828 | 0.168 | 0.758 | 0.737 | 0.355 | 0.392 | 0.22 | 0.256 | 0.396 | 0.922 | 0.895 | 0.498
2 | Cc1cc2ncnn2cc1Nc1ncc2c(n1)n(C1CCOCC1)c(=O)n2C [AZD7648] + C=CCn1c(=O)c2cnc(Nc3ccc(N4CCN(C)CC4)cc3)nc2n1-c1cccc(C(C)(C)O)n1 [AZD1775] (first compound max 10 µM, partner max 1 µM) | 0.678 | 0.551 | 0.78 | 0.993 | 0.4 | 0.455 | 0.56 | 0.295 | 0.594 | 0.853 | 0.432 | 0.418
3 | Cc1cc2ncnn2cc1Nc1ncc2c(n1)n(C1CCOCC1)c(=O)n2C [AZD7648] + CCN(CCO)CCCOc1ccc2c(Nc3cc(CC(=O)Nc4cccc(F)c4)[nH]n3)ncnc2c1 [AZD2811] (first compound max 10 µM, 7x7, partner max 1 µM) | 0.897 | 0.472 | 0.44 | 0.692 | 0.337 | 0.258 | 0.893 | 0.147 | 0.335 | 0.595 | 0.232 | 0.232
4 | Cc1cc2ncnn2cc1Nc1ncc2c(n1)n(C1CCOCC1)c(=O)n2C [AZD7648] + CN(C)CCCOc1ccc(-c2ccc3ncc4c(c3c2)n(C2CCOCC2)c(=O)n4C)cn1 [AZD0156] (first compound max 10 µM, 7x7, partner max 1 µM) | 0.39 | 0.266 | 0.161 | 0.878 | 0.305 | 0.243 | 0.172 | 0.147 | 0.307 | 0.293 | 0.225 | 0.262
5 | Cc1cc2ncnn2cc1Nc1ncc2c(n1)n(C1CCOCC1)c(=O)n2C [AZD7648] + C[C@@H]1COCCN1C2=NC(=NC(=C2)C3(CC3)[S@](=N)(=O)C)C4=C5C=CNC5=NC=C4 [AZD6738] (first compound max 10 µM, 7x7, partner max 10 µM) | 0.266 | 0.649 | 0.517 | 0.955 | 0.538 | 0.3 | 0.552 | 0.33 | 0.801 | 0.899 | 0.351 | 0.509
6 | Cc1cc2ncnn2cc1Nc1ncc2c(n1)n(C1CCOCC1)c(=O)n2C [AZD7648] + O=C(c1cc(Cc2n[nH]c(=O)c3ccccc23)ccc1F)N1CCN(C(=O)C2CC2)CC1 [Olaparib] (first compound max 10 µM, 7x7, partner max 10 µM) | 0.0328 | 0.111 | 0.341 | 0.362 | 0.234 | 0.253 | 0.394 | 0.0811 | 0.426 | 0.333 | 0.0915 | 0.0465
7 | NC1(C(=O)N[C@@H](CCO)c2ccc(Cl)cc2)CCN(c2ncnc3[nH]ccc23)CC1 [Capivasertib] + CC(=O)c1c(C)c2cnc(Nc3ccc(N4CCNCC4)cn3)nc2n(C2CCCC2)c1=O [Palbociclib] (first compound max 10 µM, 7x7, partner max 10 µM) | 0.587 | 0.436 | 0.665 | 0.522 | 0.638 | 0.453 | 0.452 | 0.493 | 0.369 | 0.836 | 0.607 | 0.412
8 | NC1(C(=O)N[C@@H](CCO)c2ccc(Cl)cc2)CCN(c2ncnc3[nH]ccc23)CC1 [Capivasertib] + CC(C)n1c(=O)n(C)c2cnc3cc(F)c(-c4ccc(OCCCN5CCCCC5)nc4)cc3c21 [AZD1390] (first compound max 10 µM, 7x7, partner max 0.3 µM) | 0.416 | 0.365 | 0.574 | 0.256 | 0.467 | 0.493 | 0.267 | 0.488 | 0.221 | 0.912 | 0.322 | 0.21
9 | NC1(C(=O)N[C@@H](CCO)c2ccc(Cl)cc2)CCN(c2ncnc3[nH]ccc23)CC1 [Capivasertib] + CCN(CCO)CCCOc1ccc2c(Nc3cc(CC(=O)Nc4cccc(F)c4)[nH]n3)ncnc2c1 [AZD2811] (first compound max 10 µM, 7x7, partner max 1 µM) | 0.831 | 0.501 | 0.754 | 0.68 | 0.542 | 0.482 | 0.932 | 0.549 | 0.452 | 0.925 | 0.355 | 0.253
10 | NC1(C(=O)N[C@@H](CCO)c2ccc(Cl)cc2)CCN(c2ncnc3[nH]ccc23)CC1 [Capivasertib] + COc1nnc2ccc(N3CCC(c4ccc(OCCN5CCN(C)C(=O)[C@H]5C)cc4)CC3)nn12 [AZD5153] (first compound max 10 µM, 7x7, partner max 1 µM) | 0.808 | 0.648 | 0.543 | 0.336 | 0.668 | 0.608 | 0.969 | 0.694 | 0.527 | 0.885 | 0.806 | 0.762
11 | NC1(C(=O)N[C@@H](CCO)c2ccc(Cl)cc2)CCN(c2ncnc3[nH]ccc23)CC1 [Capivasertib] + C[C@@H]1COCCN1C2=NC(=NC(=C2)C3(CC3)[S@](=N)(=O)C)C4=C5C=CNC5=NC=C4 [AZD6738] (first compound max 10 µM, 7x7, partner max 10 µM) | 0.637 | 0.601 | 0.7 | 0.962 | 0.678 | 0.539 | 0.793 | 0.641 | 0.811 | 0.967 | 0.68 | 0.516
12 | NC1(C(=O)N[C@@H](CCO)c2ccc(Cl)cc2)CCN(c2ncnc3[nH]ccc23)CC1 [Capivasertib] + Cn1cnc2c(F)c(Nc3ccc(Br)cc3Cl)c(C(=O)NOCCO)cc21 [Selumetinib] (first compound max 10 µM, 7x7, partner max 10 µM) | 0.778 | 0.564 | 0.927 | 0.44 | 0.583 | 0.545 | 0.352 | 0.618 | 0.428 | 0.903 | 0.388 | 0.651
13 | Cc1nc(Nc2ncc(C(=O)Nc3c(C)cccc3Cl)s2)cc(N2CCN(CCO)CC2)n1 [Dasatinib] + CC(=O)Nc1cccc(-n2c(=O)n(C3CC3)c(=O)c3c(Nc4ccc(I)cc4F)n(C)c(=O)c(C)c32)c1 [Trametinib] (first compound max 2 µM, 7x7, partner max 1 µM) | 0.728 | 0.57 | 0.503 | 0.556 | 0.784 | 0.493 | 0.0891 | 0.224 | 0.658 | 0.203 | 0.921 | 0.903
14 | COc1cccc2c1C(=O)c1c(O)c3c(c(O)c1C2=O)C[C@@](O)(C(=O)CO)C[C@@H]3O[C@H]1C[C@H](N)[C@H](O)[C@H](C)O1 [Doxorubicin] + Cc1cc2ncnn2cc1Nc1ncc2c(n1)n(C1CCOCC1)c(=O)n2C [AZD7648] (first compound max 1 µM, 7x7, partner max 10 µM) | 0.727 | 0.807 | 0.693 | 0.789 | 0.295 | 0.871 | 0.817 | 0.295 | 0.863 | 0.949 | 0.369 | 0.224
15 | COc1cc2ncnc(Nc3ccc(F)c(Cl)c3)c2cc1OCCCN1CCOCC1 [Gefitinib] + CC(C)n1c(=O)n(C)c2cnc3cc(F)c(-c4ccc(OCCCN5CCCCC5)nc4)cc3c21 [AZD1390] (first compound max 10 µM, 7x7, partner max 0.3 µM) | 0.135 | 0.227 | 0.642 | 0.189 | 0.556 | 0.202 | 0.129 | 0.0821 | 0.0716 | 0.386 | 0.714 | 0.646
16 | CS(=O)(=O)CCNCc1ccc(-c2ccc3ncnc(Nc4ccc(OCc5cccc(F)c5)c(Cl)c4)c3c2)o1 [Lapatinib] + C[C@@H](Oc1cc(-c2cnn(C3CCNCC3)c2)cnc1N)c1c(Cl)ccc(F)c1Cl [Crizotinib] (first compound max 10 µM, 7x7, partner max 10 µM) | 0.939 | 0.858 | 0.986 | 0.97 | 0.945 | 0.826 | 0.94 | 0.224 | 0.796 | 0.936 | 0.985 | 0.964
